Experimental data: patent publication US6541638B2, “Pyrrolidine derivatives” (Hoffman-La Roche Inc., priority 2000, dated 2003)

SMILES: O=C([C@@H]1C[C@@H](S)CN1S(=O)(=O)c1ccc2ccccc2c1)N(CCc1nnn[nH]1)C1CC1
- melting point: 173.5 °C (dec.)
